The source made the active and inactive calls. The calls are words filed in the database; no cut-off is given here.
What was measured:
[1] = target: T1, Farnesyl pyrophosphate synthase (Homo sapiens, UniProt P14324); experiment: Inhibition of N-terminal hexaHis-tagged human FPPS (6 to 353 residues) expressed in Escherichia coli using GPP and IPP as substrate by enzyme coupled assay
T1 sequence (P14324 whole entry): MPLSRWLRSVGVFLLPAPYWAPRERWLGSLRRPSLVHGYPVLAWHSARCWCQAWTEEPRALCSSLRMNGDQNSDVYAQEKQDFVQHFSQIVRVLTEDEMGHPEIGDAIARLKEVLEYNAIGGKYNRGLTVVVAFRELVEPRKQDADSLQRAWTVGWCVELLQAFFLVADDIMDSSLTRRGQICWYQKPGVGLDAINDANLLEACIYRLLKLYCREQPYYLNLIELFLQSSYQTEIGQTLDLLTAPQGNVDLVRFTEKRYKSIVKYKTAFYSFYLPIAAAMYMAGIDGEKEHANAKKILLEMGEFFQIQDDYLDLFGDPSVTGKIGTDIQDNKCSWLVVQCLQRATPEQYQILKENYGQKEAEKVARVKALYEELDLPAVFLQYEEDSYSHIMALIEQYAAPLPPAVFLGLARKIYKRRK

[2] = Inhibition of full-length N-terminal hexaHis-tagged Escherichia coli type 1 IDI using IPP as substrate by enzyme coupled assay
[3] = Competitive inhibition of full-length N-terminal hexaHis-tagged Escherichia coli type 1 IDI using varying levels of IPP as substrate by Line weaver Burk plot analysis
[4] = Inhibition of 4-DMATS (unknown origin)
[5] = Competitive inhibition of recombinant N-terminal hexaHis-tagged Staphylococcus aureus MS4 DSQS expressed in Escherichia coli Rosetta(DE3) using varying levels of FPP as substrate by Line weaver Burk plot analysis
[6] = system: Claviceps purpurea; experiment: Inhibition of Claviceps purpurea type 1 IDI

Compound	IC50 [1] [µM]	IC50 [2] [µM]	Ki [3] [µM]	inhibition [4]	Ki [5] [µM]	Kdiss [6]
NC(N)=NCP(=O)(O)CP(=O)(O)O	233	0.3	0.12	inactive	–	–
NCP(=O)(O)CP(=O)(O)O	150	15	4.2	inactive	–	–
CC(C)=CCC/C(C)=C/CC/[N+](C)=C/NCP(=O)(O)CP(=O)([O-])O	–	–	–	–	4.2	–
CN(C)CCOP(=O)(O)OP(=O)(O)O	–	–	–	–	–	< 1.2 10^-10M
CC(=O)NCP(=O)(O)CP(=O)(O)O	177	190	51.7	inactive	–	–
CC(C)CCCC(C)CCCN(C)C(=O)NCP(=O)(O)CP(=O)(O)O (stereo unspecified)	–	–	–	–	0.61	–
CC(C)=CCC/C(C)=C/CC/[N+](C)=C(\N)NCP(=O)(O)CP(=O)([O-])O	–	–	–	–	1.9	–
